Read-outs that look alike come from different tables or passages of the source.

One assay addresses BCL6 BTB domain (Homo sapiens (Human), UniProt P41182). Kind of assay: Surface plasmon resonance (SPR) assay. Format: binding. Particulars: BCL6 BTB domain captured on SA chip, single cycle kinetics. In general terms: SPR reads the build-up and loss of mass on a sensor chip optically.
The next assay concerns Karpas422 cells. Kind of assay: Tumor cell growth inhibition assay. It counts as cell-based. The method, boiled down: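 Growth inhibition was measured by ATPlite luminescence after six days of culture at 37° C. in 5% CO2. Karpas422 cells were seeded at 2,000 per well in Alpha-MEM plus 10% FBS. Compounds were given as a 10-point concentration series with a highest dose of 5 uM.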

The subject of assay [1] is BCL6 reporter construct (3xBCL6-TK-Luc) in SuDHL4 cells. Kind of assay: Cell-based luciferase assay. The method, boiled down:
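SuDHL4 cells stably carrying a 3×BCL6-site TK-promoter firefly luciferase reporter, seeded at 15,000 cells/well, were dosed over a 10-point range (top 10 uM) and grown two days at 37 °C, 5% CO2. Luminescence then read after adding neolite reagent at room temperature.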

Where [2] appears, read: Homo sapiens, KARPAS-422, 144 h, read-out: Tumor Growth Inhibition in Karpas-422 (IC50, uM), Karpas422 cells, six days, ATPlite.
Where [3] appears, read: Homo sapiens, SU-DHL-4, 48 h, read-out: Luciferase-Assay EC50, uM), SuDHL4-3xBCL6-TK-Luc cells, two days, high dose 10 uM.
Where [4] appears, read: read-out: Tumor Growth Inhibition in Karpas-422 (IC50), Karpas422 cells, six days, ATPlite.
Setting [5] is: read-out: Luciferase-Assay EC50, SuDHL4-3xBCL6-TK-Luc cells, two days, high dose 10 uM.

Turning to `Cn1cnc2c(c(-c3cc(F)c(O)c(C(N)=O)c3)cn2CC(=O)Nc2cc(N3CC4CCC(C3)O4)ncc2Cl)c1=O` [Compound I-176], on BCL6 BTB domain, the Kd (usually a measure of binding affinity in units of concentration) was found to be 6.06 nM. The IC50 (commonly the point on the concentration scale where inhibition reaches its midpoint) with Karpas422 cells (setting [2]) worked out at 0.137 µM. Besides, the EC50 (usually the concentration giving half of the maximal effect) in assay [1] (setting [3]) worked out at 0.239 µM.

As to `CN1CCOC2(CCN(c3cc(NC(=O)Cn4cc(-c5cc(F)c(O)c(C(N)=O)c5)c5c(=O)n(C)cnc54)c(Cl)cn3)C2)C1` (stereo not drawn) [Compound I-177], the Kd on BCL6 BTB domain worked out at 5.88 nM. For the same compound, the 50% inhibitory concentration (IC50) in the assay on Karpas422 cells (setting [2]) is 0.331 µM. Further, the EC50 in assay [1] (setting [3]) was found to be 0.629 µM.

With `Cn1cnc2c(c(-c3cc(C(N)=O)c(O)c(F)c3F)cn2CC(=O)Nc2cc(N3CCOCC3)ncc2Cl)c1=O` [Compound I-178], on BCL6 BTB domain, binding was characterised by a dissociation constant (Kd) of 62.1 nM. Besides, in the assay on Karpas422 cells (setting [2]), the IC50 was 0.877 µM. Further, the EC50 in assay [1] (setting [3]) was 0.96 µM.

For `C[C@@H]1CN(c2cc(NC(=O)Cn3cc(-c4cc(C(N)=O)c(O)c(F)c4F)c4c(=O)n(C)cnc43)c(Cl)cn2)C[C@H](C)O1` [Compound I-179], at BCL6 BTB domain, the affinity, expressed as Kd, was 77.7 nM. The IC50 in the assay on Karpas422 cells (setting [2]) worked out at 0.681 µM. In addition, in assay [1] (setting [3]), the EC50 came to 0.612 µM.

In turn, `C[C@H]1COCCN1c1cc(NC(=O)Cn2cc(-c3cc(C(N)=O)c(O)c(F)c3F)c3c(=O)n(C)cnc32)c(Cl)cn1` [Compound I-180] registered a Kd at BCL6 BTB domain of 45.4 nM. Moreover, the IC50 in the assay on Karpas422 cells (setting [2]) is 2.18 µM. In addition, the EC50 in assay [1] (setting [3]) was determined as 1.37 µM.

For the compound `Cn1cnc2c(c(-c3cc(Cl)c(O)c(C(N)=O)c3)cn2CC(=O)Nc2cc3cnn(C)c3cc2Cl)c1=O` [Compound I-181], the affinity at BCL6 BTB domain, expressed as Kd, was 617 nM. In addition, in the assay on Karpas422 cells (setting [2]), the IC50 is 10 µM. Besides, the EC50 in assay [1] (setting [3]) turned out to be 33 µM.

As for `Cn1cc2cc(NC(=O)Cn3cc(-c4cc(Cl)c(O)c(C(N)=O)c4)c4c(=O)n(C)cnc43)c(Cl)cc2n1` [Compound I-182], the Kd at BCL6 BTB domain was 86.3 nM. In addition, the IC50 in the assay on Karpas422 cells (setting [2]) stood at 1.03 µM. Moreover, the concentration for a half-maximal effect (EC50) in assay [1] (setting [3]) was found to be 1.41 µM.

At BCL6 BTB domain, `CN1CCc2cc(NC(=O)Cn3cc(-c4cc(Cl)c(O)c(C(N)=O)c4)c4c(=O)n(C)cnc43)c(Cl)cc21` [Compound I-183] had a dissociation constant (Kd) of 221 nM. The half-maximal inhibitory concentration (IC50) in the assay on Karpas422 cells (setting [2]) was 10 µM. In addition, the EC50 in assay [1] (setting [3]) stood at 3.91 µM.

As for `CN1CCOC2(CCN(c3cc(NC(=O)Cn4cc(-c5cc(C(N)=O)c(O)cc5F)c5c(=O)n(C)cnc54)c(Cl)cn3)C2)C1` (stereo not drawn) [Compound I-184], on BCL6 BTB domain, binding was characterised by a dissociation constant (Kd) of 37.4 nM. In the assay on Karpas422 cells (setting [2]), the IC50 amounted to 0.26 µM. The EC50 in assay [1] (setting [3]) was 0.348 µM.

With `Cn1cnc2c(c(-c3cc(Cl)c(O)c(C(N)=O)c3)cn2CC(=O)Nc2c(Cl)cnc(N3CCOCC3)c2F)c1=O` [Compound I-185], the equilibrium dissociation constant (Kd) on BCL6 BTB domain stood at 118 nM. Besides, in the assay on Karpas422 cells (setting [4]), the IC50 was determined as 2.2 µM. The half-maximal effective concentration (EC50) in assay [1] (setting [3]) was found to be 3.44 µM.

The compound `CN1CCN(c2cc(NC(=O)Cn3cc(-c4cc(C(N)=O)c(O)c(Cl)c4F)c4c(=O)n(C)cnc43)c(Cl)cn2)CC1` [Compound I-188] returned a Kd at BCL6 BTB domain of 435 nM. Also, the IC50 in the assay on Karpas422 cells (setting [2]) is 2.95 µM. Moreover, the EC50 in assay [1] (setting [3]) came to 4.75 µM.

`COc1c(O)c(C(N)=O)cc(-c2cn(CC(=O)Nc3cc(N4CCN(C)CC4)ncc3Cl)c3ncn(C)c(=O)c23)c1F` [Compound I-189] displayed a Kd on BCL6 BTB domain of 143 nM. In addition, in the assay with Karpas422 cells (setting [2]), the IC50 was 2.19 µM. The EC50 in assay [1] (setting [3]) came out at 1.69 µM.

For `Cn1cnc2c(c(-c3cc(Cl)c(O)c(C(N)=O)c3)cn2CC(=O)Nc2c(Cl)cnc(N3CCOCC3)c2F)c1=O` [Compound I-191], the Kd on BCL6 BTB domain amounted to 122 nM. Besides, the IC50 in the assay on Karpas422 cells (setting [4]) worked out at 4.72 µM. In assay [1] (setting [5]), the EC50 is 5.42 µM.

The compound `C[C@@H]1CN(c2cc(NC(=O)Cn3cc(-c4cc(C(N)=O)c(O)c(Cl)c4F)c4c(=O)n(C)cnc43)c(Cl)cn2)C[C@H](C)O1` [Compound I-192] gave a Kd at BCL6 BTB domain of 757 nM. Besides, the IC50 with Karpas422 cells (setting [4]) was found to be 1.24 µM. Moreover, the EC50 in assay [1] (setting [5]) stood at 3.98 µM.

The compound `COc1c(O)c(C(N)=O)cc(-c2cn(CC(=O)Nc3cc(N4C[C@@H](C)N[C@@H](C)C4)ncc3Cl)c3ncn(C)c(=O)c23)c1F` [Compound I-193] came in with a Kd at BCL6 BTB domain of 229 nM. Also, the IC50 in the assay with Karpas422 cells (setting [2]) was 2.66 µM. For the same compound, in assay [1] (setting [3]), the EC50 turned out to be 5.39 µM.

`Cc1c(N2CCOCC2)ncc(F)c1NC(=O)Cn1cc(-c2cc(Cl)c(O)c(C(N)=O)c2)c2c(=O)n(C)cnc21` [Compound I-194] returned a dissociation constant (Kd) on BCL6 BTB domain of 120 nM. For the same compound, the IC50 in the assay with Karpas422 cells (setting [2]) was found to be 5.65 µM. Moreover, in assay [1] (setting [3]), the EC50 is 11 µM.

The values are drawn from patent publication US11518764B2, “Substituted heteroaryls as inhibitors of the BCL6 BTB domain protein-protein interaction” (Ontario Institute for Cancer Research (OICR), priority 2018, dated 2022).
